Source: the CheMixHub drug solubility set

Assay: xn = mol fraction of the nth substance listed, in the solute-free solvent

O=C1C=CC(=O)N1c1ccccc1Br + CO + O
solubility (g/100 g solution)
Conditions | 278.15 K | 283.15 K | 288.15 K | 293.15 K | 298.15 K | 303.15 K | 308.15 K | 313.15 K | 318.15 K | 323.15 K
x2 = 0.05881 | 0.58 | 0.746 | 0.94 | 1.19 | 1.47 | 1.83 | 2.25 | 2.74 | 3.31 | 4.02
x2 = 0.1233 | 1.14 | 1.45 | 1.86 | 2.38 | 2.94 | 3.7 | 4.49 | 5.5 | 6.69 | 7.95
x2 = 0.1942 | 2.04 | 2.61 | 3.29 | 4.1 | 5.06 | 6.13 | 7.47 | 9.02 | 10.8 | 12.7
x2 = 0.2727 | 3.47 | 4.29 | 5.27 | 6.48 | 7.79 | 9.34 | 11.1 | 13 | 15.3 | 17.7
x2 = 0.3599 | 4.79 | 5.85 | 7.12 | 8.56 | 10.2 | 12 | 14.3 | 16.5 | 19 | 21.8
x2 = 0.4576 | 6.01 | 7.29 | 8.71 | 10.5 | 12.4 | 14.5 | 16.9 | 19.4 | 22.2 | 25.4
x2 = 0.5675 | 7 | 8.5 | 10.2 | 12.2 | 14.3 | 16.8 | 19.5 | 22.2 | 25.4 | 28.6
x2 = 0.6923 | 7.84 | 9.53 | 11.5 | 13.5 | 16.1 | 18.7 | 21.7 | 24.7 | 28.1 | 31.6
x2 = 0.835 | 8.75 | 10.5 | 12.7 | 14.9 | 17.7 | 20.6 | 23.8 | 27.1 | 30.8 | 34.6

Nc1ncc(Br)nc1Br + CCO + O
solubility (g/100 g solution)
Conditions | 278.15 K | 283.15 K | 288.15 K | 293.15 K | 298.15 K | 303.15 K | 308.15 K | 313.15 K | 318.15 K | 323.15 K
x2 = 0.04165 | 0.0211 | 0.0254 | 0.0296 | 0.0345 | 0.0394 | 0.044 | 0.0494 | 0.0552 | 0.0608 | 0.0668
x2 = 0.08908 | 0.0644 | 0.0768 | 0.0889 | 0.102 | 0.116 | 0.128 | 0.142 | 0.158 | 0.172 | 0.188
x2 = 0.1436 | 0.124 | 0.148 | 0.171 | 0.197 | 0.222 | 0.245 | 0.271 | 0.299 | 0.326 | 0.354
x2 = 0.2068 | 0.179 | 0.214 | 0.249 | 0.286 | 0.324 | 0.358 | 0.395 | 0.438 | 0.479 | 0.521
x2 = 0.2812 | 0.211 | 0.256 | 0.304 | 0.349 | 0.397 | 0.444 | 0.493 | 0.546 | 0.604 | 0.661
x2 = 0.3698 | 0.245 | 0.296 | 0.35 | 0.412 | 0.474 | 0.527 | 0.589 | 0.656 | 0.726 | 0.798
x2 = 0.4772 | 0.274 | 0.338 | 0.41 | 0.481 | 0.546 | 0.618 | 0.693 | 0.776 | 0.863 | 0.957
x2 = 0.6101 | 0.321 | 0.396 | 0.476 | 0.557 | 0.644 | 0.729 | 0.82 | 0.919 | 1.03 | 1.15
x2 = 0.7788 | 0.4 | 0.489 | 0.59 | 0.683 | 0.792 | 0.891 | 1 | 1.13 | 1.26 | 1.4

c1ccc2c(c1)CCc1ccccc1N2 + CCO + O
solubility (g/100 g solution)
Conditions | 283.15 K | 288.15 K | 293.15 K | 298.15 K | 303.15 K | 308.15 K | 313.15 K | 318.15 K | 323.15 K | 328.15 K
x2 = 0.04179 | 0.0221 | 0.0315 | 0.0433 | 0.0609 | 0.0803 | 0.109 | 0.143 | 0.188 | 0.245 | 0.315
x2 = 0.08913 | 0.114 | 0.158 | 0.211 | 0.288 | 0.371 | 0.489 | 0.626 | 0.801 | 1.02 | 1.28
x2 = 0.1443 | 0.214 | 0.292 | 0.388 | 0.52 | 0.666 | 0.866 | 1.1 | 1.39 | 1.75 | 2.17
x2 = 0.207 | 0.24 | 0.326 | 0.432 | 0.576 | 0.738 | 0.954 | 1.21 | 1.53 | 1.91 | 2.38
x2 = 0.2814 | 0.229 | 0.311 | 0.414 | 0.548 | 0.706 | 0.909 | 1.15 | 1.46 | 1.82 | 2.27
x2 = 0.3697 | 0.231 | 0.313 | 0.417 | 0.55 | 0.71 | 0.909 | 1.15 | 1.46 | 1.82 | 2.26
x2 = 0.4785 | 0.269 | 0.363 | 0.465 | 0.612 | 0.779 | 1 | 1.28 | 1.62 | 2.02 | 2.49
x2 = 0.6105 | 0.316 | 0.423 | 0.561 | 0.728 | 0.94 | 1.19 | 1.5 | 1.89 | 2.33 | 2.88
x2 = 0.7769 | 0.374 | 0.498 | 0.659 | 0.848 | 1.09 | 1.37 | 1.73 | 2.16 | 2.66 | 3.28

Nc1ncn(C2OC(CO)C(O)C2O)c(=O)n1 (stereo unspecified) + O + CC(C)O
solubility (g/100 g solution)
Conditions | 278.15 K | 283.15 K | 288.15 K | 293.15 K | 298.15 K | 303.15 K | 308.15 K | 313.15 K | 318.15 K
x2 = 0.4546 | 0.0657 | 0.0837 | 0.104 | 0.126 | 0.152 | 0.187 | 0.227 | 0.276 | 0.336
x2 = 0.6897 | 0.152 | 0.192 | 0.238 | 0.293 | 0.351 | 0.421 | 0.502 | 0.601 | 0.714
x2 = 0.8334 | 0.275 | 0.349 | 0.429 | 0.516 | 0.613 | 0.717 | 0.851 | 0.997 | 1.17
x2 = 0.9303 | 0.455 | 0.57 | 0.693 | 0.836 | 0.979 | 1.14 | 1.31 | 1.52 | 1.75

CC(C)C(=O)Nc1ccc([N+](=O)[O-])c(C(F)(F)F)c1 + CCOC(C)=O + CC(C)O
solubility (g/100 g solution)
Conditions | 278.15 K | 283.15 K | 288.15 K | 293.15 K | 298.15 K | 303.15 K | 308.15 K | 313.15 K | 318.15 K | 323.15 K
x2 = 0.1 | 19.4 | 22.7 | 26.3 | 30.2 | 33.9 | 38.7 | 43.5 | 48.3 | 53 | 57.4
x2 = 0.2 | 28.6 | 30.8 | 33.4 | 36.8 | 40.7 | 44.4 | 48.2 | 51.8 | 55.6 | 59.2
x2 = 0.3 | 30.6 | 34.2 | 38 | 41.5 | 44.9 | 48.2 | 51.3 | 54.9 | 58.2 | 61.5
x2 = 0.4 | 32.7 | 36.3 | 39.5 | 42.8 | 45.9 | 49 | 52.5 | 55.8 | 58.7 | 61.9
x2 = 0.5 | 33.7 | 37.2 | 40.7 | 44 | 46.9 | 49.8 | 52.9 | 56.1 | 59.3 | 62.1
x2 = 0.6 | 34.3 | 38 | 41.5 | 44.7 | 47.6 | 50.4 | 53.3 | 56.4 | 59.4 | 62.5
x2 = 0.7 | 34.5 | 37.8 | 41 | 44.3 | 47.4 | 50.3 | 53.4 | 56.4 | 59.4 | 62.4
x2 = 0.8 | 34.2 | 37.7 | 41.3 | 44.7 | 47.8 | 50.9 | 53.6 | 56.7 | 59.8 | 62.9
x2 = 0.9 | 34.4 | 37.9 | 41.5 | 44.8 | 47.8 | 51.1 | 53.9 | 56.6 | 59.5 | 62.6
